These results are taken from publication PMC8230315, “A Pan-Inhibitor for Protein Arginine Methyltransferase Family Enzymes” (Biomolecules, 2021).

Read-outs that look alike come from different tables or passages of the source.

The target in assay [1] is T1, PRMT1 (Homo sapiens, UniProt Q99873). The experiment in a line: SAHH-coupled fluorescence assay, PRMT1 inhibition. To be noted: for IC50: PRMT1 0.1 µM, n = 2, mean ± SD; for Ki: calculated as Ki, app = IC50/(1 + [S]/Km), read-out: Ki, app. The assay is classed as biochemical. The procedure:
A fluorescence-based SAHH-coupled assay was used to evaluate the IC50 values of inhibitors by monitoring the production of SAH from SAM after methylation. […] The fluorescence signal was monitored on a BMG CLARIOstar microplate reader with excitation at 400 nm and emission at 465 nm for 18 min. Data were processed using GraphPad Prism software 7.0. All experiments were performed in duplicate.
The fluorescence signal was monitored on a BMG CLARIOstar microplate reader with excitation at 400 nm and emission at 465 nm for 18 min. Data were processed using GraphPad Prism software 7.0. All experiments were performed in duplicate. […].

In another assay the target is T2, SETD7 (Homo sapiens, UniProt Q8WTS6).
T2 construct: made in house
T2 sequence (Q8WTS6 1-366): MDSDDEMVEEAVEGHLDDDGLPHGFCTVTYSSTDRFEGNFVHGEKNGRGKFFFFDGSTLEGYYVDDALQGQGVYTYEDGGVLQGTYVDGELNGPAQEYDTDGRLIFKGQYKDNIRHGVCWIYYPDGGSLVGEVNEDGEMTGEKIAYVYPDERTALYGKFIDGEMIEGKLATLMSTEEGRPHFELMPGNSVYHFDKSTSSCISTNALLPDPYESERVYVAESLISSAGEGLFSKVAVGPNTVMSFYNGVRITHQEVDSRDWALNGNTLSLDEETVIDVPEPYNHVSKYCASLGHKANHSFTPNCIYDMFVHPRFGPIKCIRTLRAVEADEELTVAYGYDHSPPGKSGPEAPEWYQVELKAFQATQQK
The experiment in a line: Selectivity SAHH-coupled fluorescence assay, SETD7. The class given is biochemical. To be noted: at 100 μM. From the text:
(§1) We chose the top four potent compounds (6b and 6l–n) to investigate their selectivities against several in-house methyltransferases including protein arginine methyltransferase TbPRMT7, two members of the protein lysine methyltransferase PKMT (G9a and SETD7), protein N-terminal methyltransferase 1 (NTMT1), and a small molecule methyltransferase nicotinamide N-methyltransferase (NNMT), all of which have a SAM binding site.
A fluorescence-based SAHH-coupled assay was applied to study the effect of the compound on methyltransferase activity of PRMT7, NTMT1, SETD7, G9a, NNMT, and SAHH. For PRMT7, the assay was performed in a final well volume of 100 μL: 25 mM Tris (pH = 7.5), 50 mM KCl, 0.01% Triton X-100, 5 μM SAHH, 0.2 μM PRMT7, 3 μM AdoMet, and 15 μM ThioGlo1. After incubation for 10 min with the inhibitor, reactions were initiated by the addition of 60 μM H4-21 peptide, and the reaction was monitored for 15 min. For NTMT1, the assay was performed in a final well volume of 100 μL: 25 mM Tris (pH = 7.5), 50 mM KCl, 0.01% Triton X-100, 5 μM SAHH, 0.1 μM NTMT1, 3 μM AdoMet, and 10 μM ThioGlo4. After incubation for 10 min with the inhibitor, reactions were initiated by the addition of 0.5 μM GPKRIA peptide, and the reaction was monitored for 15 min. For SETD7, the assay was performed in a final well volume of 100 μL: 25 mM potassium phosphate buffer (pH = 7.6), 0.01% Triton X-100, 5 μM SAHH, 1 μM SETD7, 2 μM AdoMet, and 10 μM ThioGlo1. After incubation for 10 min with the inhibitor, reactions were initiated by the addition of 90 μM H3-21 peptide, and the reaction was monitored for 15 min. For G9a, the assay was performed in a final well volume of 100 μL: 25 mM potassium phosphate buffer (pH = 7.6), 1 mM EDTA, 2 mM MgCl2, 0.01% Triton X-100, 5 μM SAHH, 0.1 μM His-G9a, 10 μM AdoMet, and 10 μM ThioGlo4. For NNMT, the assay was performed in a final well volume of 100 μL: 25 mM Tris (pH = 7.5), 50 mM KCl, 0.01% Triton X- 100, 5 μM SAHH, 0.1 μM NNMT, 10 μM AdoMet, and 10 μM ThioGlo1. After incubation for 10 min with the inhibitor, reactions were initiated by the addition of 10 μM nicotinamide, and the reaction was monitored for 18 min. The inhibitors were added at five concentrations: 100, 33.3, 11.1, 3.7, and 1.2 μM.

A further assay deals with T3, TbPRMT7 (Trypanosoma brucei brucei, UniProt Q582G4).
T3 construct: made in house
In words: Selectivity SAHH-coupled fluorescence assay, TbPRMT7. The class given is biochemical. To be noted: at 11.1 μM.
Excerpt: as §1
A fluorescence-based SAHH-coupled assay was applied to study the effect of the compound on methyltransferase activity of PRMT7, NTMT1, SETD7, G9a, NNMT, and SAHH. For PRMT7, the assay was performed in a final well volume of 100 μL: 25 mM Tris (pH = 7.5), 50 mM KCl, 0.01% Triton X-100, 5 μM SAHH, 0.2 μM PRMT7, 3 μM AdoMet, and 15 μM ThioGlo1. After incubation for 10 min with the inhibitor, reactions were initiated by the addition of 60 μM H4-21 peptide, and the reaction was monitored for 15 min. […] After incubation for 10 min with the inhibitor, reactions were initiated by the addition of 0.5 μM GPKRIA peptide, and the reaction was monitored for 15 min. […] After incubation for 10 min with the inhibitor, reactions were initiated by the addition of 90 μM H3-21 peptide, and the reaction was monitored for 15 min. […] After incubation for 10 min with the inhibitor, reactions were initiated by the addition of 10 μM nicotinamide, and the reaction was monitored for 18 min. […]

The target in assay [2] is T1, PRMT1. The note with it: cited from earlier work.
The next assay has as its system PRMT5/MEP50. The arrangement: method as in doi:10.1158/1538-7445.AM2018-4859. To be noted: cited from earlier work.
A further assay has as its target T4, PRMT4 (Homo sapiens, UniProt Q86X55).
T4 construct: purchased Reaction Biology
T4 sequence (Q86X55 1-608): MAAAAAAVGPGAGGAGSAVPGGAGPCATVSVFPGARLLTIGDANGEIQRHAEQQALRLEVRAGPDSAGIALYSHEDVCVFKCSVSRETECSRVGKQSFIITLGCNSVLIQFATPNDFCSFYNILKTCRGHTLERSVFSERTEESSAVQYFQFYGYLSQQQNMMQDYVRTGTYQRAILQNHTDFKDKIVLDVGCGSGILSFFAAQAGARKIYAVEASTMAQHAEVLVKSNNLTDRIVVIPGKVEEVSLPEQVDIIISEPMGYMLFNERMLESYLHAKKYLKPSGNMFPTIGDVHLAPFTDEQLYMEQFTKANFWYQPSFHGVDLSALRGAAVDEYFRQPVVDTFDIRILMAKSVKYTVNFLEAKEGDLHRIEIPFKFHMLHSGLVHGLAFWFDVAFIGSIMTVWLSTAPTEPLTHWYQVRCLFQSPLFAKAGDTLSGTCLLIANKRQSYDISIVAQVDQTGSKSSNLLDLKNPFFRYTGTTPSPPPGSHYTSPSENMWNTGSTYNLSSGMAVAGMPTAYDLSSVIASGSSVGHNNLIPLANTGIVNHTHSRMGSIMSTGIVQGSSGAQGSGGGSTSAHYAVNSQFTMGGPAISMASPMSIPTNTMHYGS
To be noted: cited from earlier work.

[3] abbreviates: at Km of SAM (10 µM) and H4-21 peptide (5 µM).
Setting [4] is: substrate concentration at 4 Km (footnote a).

T1 sequence (Q99873 whole entry, species assumed): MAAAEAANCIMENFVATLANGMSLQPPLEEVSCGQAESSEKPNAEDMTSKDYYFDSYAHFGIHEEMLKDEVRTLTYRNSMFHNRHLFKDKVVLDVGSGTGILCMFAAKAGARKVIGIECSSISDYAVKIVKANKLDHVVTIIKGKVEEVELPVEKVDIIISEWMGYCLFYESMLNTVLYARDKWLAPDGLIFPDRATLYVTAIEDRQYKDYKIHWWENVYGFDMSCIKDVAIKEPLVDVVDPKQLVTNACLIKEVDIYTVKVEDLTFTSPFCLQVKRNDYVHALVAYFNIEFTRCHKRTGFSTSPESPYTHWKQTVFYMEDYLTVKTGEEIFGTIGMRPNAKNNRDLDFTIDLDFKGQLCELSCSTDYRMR
T3 sequence (Q582G4 whole entry): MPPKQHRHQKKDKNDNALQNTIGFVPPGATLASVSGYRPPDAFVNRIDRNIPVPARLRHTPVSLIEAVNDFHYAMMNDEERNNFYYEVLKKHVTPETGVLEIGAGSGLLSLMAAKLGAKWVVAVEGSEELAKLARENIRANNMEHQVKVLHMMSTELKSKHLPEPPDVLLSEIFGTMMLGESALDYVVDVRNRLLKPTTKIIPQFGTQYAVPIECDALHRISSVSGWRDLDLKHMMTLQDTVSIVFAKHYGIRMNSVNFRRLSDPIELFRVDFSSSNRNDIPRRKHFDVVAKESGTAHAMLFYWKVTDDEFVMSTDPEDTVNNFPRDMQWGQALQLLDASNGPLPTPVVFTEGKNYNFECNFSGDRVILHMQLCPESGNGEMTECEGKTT

With `CCNC(=N)NCCCSC[C@H]1O[C@@H](n2cnc3c(N)ncnc32)[C@H](O)[C@@H]1O` [Compound 6a, 1-(3-((((2S,3S,4R,5R)-5-(6-amino-9H-purin-9-yl)-3,4-dihydroxytetrahydrofuran-2-yl)methyl)thio)propyl)-3-ethylguanidine], half-maximal inhibition against PRMT1 [1] (setting [3]) (IC50) was put at 620 ± 80 nM. The Ki at PRMT1 [1] is 310 ± 40 nM.

As for `N=C(NCCCSC[C@H]1O[C@@H](n2cnc3c(N)ncnc32)[C@H](O)[C@@H]1O)NC1CCC1` [Compound 6b, 1-(3-((((2S,3S,4R,5R)-5-(6-amino-9H-purin-9-yl)-3,4-dihydroxytetrahydrofuran-2-yl)methyl)thio)propyl)-3-cyclobutylguanidine], the inhibition (usually the share of the control response that was lost under treatment) at 100 µM at SETD7 was > 50%. The “inhibitory activity against PRMT7” value at TbPRMT7 is listed as “no inhibitory activity”. Besides, 230 ± 20 nM corresponded to half-maximal inhibition on PRMT1 [1] (setting [4]) (IC50). For the same compound, on PRMT1 [1], the Ki is 45 ± 5 nM.

Consider `N=C(NCCCSC[C@H]1O[C@@H](n2cnc3c(N)ncnc32)[C@H](O)[C@@H]1O)NC1CCCC1` [Compound 6c, 1-(3-((((2S,3S,4R,5R)-5-(6-amino-9H-purin-9-yl)-3,4-dihydroxytetrahydrofuran-2-yl)methyl)thio)propyl)-3-cyclopentylguanidine], for which inhibition on PRMT1 [1] (setting [3]) was half-maximal at 220 ± 16 nM (IC50). Moreover, the Ki on PRMT1 [1] is 110 ± 8 nM.

Regarding `N=C(NCCCSC[C@H]1O[C@@H](n2cnc3c(N)ncnc32)[C@H](O)[C@@H]1O)NC1CCCCC1` [Compound 6d, 1-(3-((((2S,3S,4R,5R)-5-(6-amino-9H-purin-9-yl)-3,4-dihydroxytetrahydrofuran-2-yl)methyl)thio)propyl)-3-cyclohexylguanidine], the IC50 (in general, the concentration needed to halve the response being measured) against PRMT1 [1] (setting [3]) is 110 ± 48 nM. Also, on PRMT1 [1], the Ki was 55 ± 24 nM.

The compound `N=C(NCCCSC[C@H]1O[C@@H](n2cnc3c(N)ncnc32)[C@H](O)[C@@H]1O)NCC1CCCCC1` [Compound 6e, 1-(3-((((2S,3S,4R,5R)-5-(6-amino-9H-purin-9-yl)-3,4-dihydroxytetrahydrofuran-2-yl)methyl)thio)propyl)-3-(cyclohexylmethyl)guanidine] had an IC50 on PRMT1 [1] (setting [3]) of 120 ± 26 nM. The Ki at PRMT1 [1] is 60 ± 13 nM.

As to `N=C(NCCCSC[C@H]1O[C@@H](n2cnc3c(N)ncnc32)[C@H](O)[C@@H]1O)Nc1ccccc1` [Compound 6f, 1-(3-((((2S,3S,4R,5R)-5-(6-amino-9H-purin-9-yl)-3,4-dihydroxytetrahydrofuran-2-yl)methyl)thio)propyl)-3-phenylguanidine], the IC50 on PRMT1 [1] (setting [3]) is 290 ± 10 nM. Further, the Ki on PRMT1 [1] was 150 ± 5 nM. Moreover, the “fold reduction of PRMT1 inhibition compared to 6d” value at PRMT1 [1] (ratio of IC50 values) is on record as “about 2.5 fold”.

At PRMT1 [1] (setting [3]), `N=C(NCCCSC[C@H]1O[C@@H](n2cnc3c(N)ncnc32)[C@H](O)[C@@H]1O)NCc1ccccc1` [Compound 6g, 1-(3-((((2S,3S,4R,5R)-5-(6-amino-9H-purin-9-yl)-3,4-dihydroxytetrahydrofuran-2-yl)methyl)thio)propyl)-3-benzylguanidine] registered an IC50 of 720 ± 150 nM. The Ki on PRMT1 [1] was 360 ± 75 nM.

For the compound `N=C(NCCCSC[C@H]1O[C@@H](n2cnc3c(N)ncnc32)[C@H](O)[C@@H]1O)NCCc1ccccc1` [Compound 6h, 1-(3-((((2S,3S,4R,5R)-5-(6-amino-9H-purin-9-yl)-3,4-dihydroxytetrahydrofuran-2-yl)methyl)thio)propyl)-3-phenethylguanidine], half-maximal inhibition against PRMT1 [1] (setting [3]) (IC50) was put at 210 ± 60 nM. Further, at PRMT1 [1], the Ki was 110 ± 30 nM.

On PRMT1 [1] (setting [3]), `N=C(NCCCSC[C@H]1O[C@@H](n2cnc3c(N)ncnc32)[C@H](O)[C@@H]1O)NCCCc1ccccc1` [Compound 6i, 1-(3-((((2S,3S,4R,5R)-5-(6-amino-9H-purin-9-yl)-3,4-dihydroxytetrahydrofuran-2-yl)methyl)thio)propyl)-3-(3-phenylpropyl)guanidine] returned an IC50 of 330 ± 110 nM. Also, the Ki at PRMT1 [1] is 170 ± 55 nM.

With `N=C(NCCCSC[C@H]1O[C@@H](n2cnc3c(N)ncnc32)[C@H](O)[C@@H]1O)Nc1ccccc1[N+](=O)[O-]` [Compound 6j, 1-(3-((((2S,3S,4R,5R)-5-(6-amino-9H-purin-9-yl)-3,4-dihydroxytetrahydrofuran-2-yl)methyl)thio)propyl)-3-(2-nitrophenyl)guanidine], half-maximal inhibition at PRMT1 [1] (setting [3]) (IC50) was put at 210 ± 10 nM. Moreover, the Ki at PRMT1 [1] was 110 ± 5 nM.

Take `N=C(NCCCSC[C@H]1O[C@@H](n2cnc3c(N)ncnc32)[C@H](O)[C@@H]1O)Nc1ccc(Br)cc1` [Compound 6m, 1-(3-((((2S,3S,4R,5R)-5-(6-amino-9H-purin-9-yl)-3,4-dihydroxytetrahydrofuran-2-yl)methyl)thio)propyl)-3-(4-bromophenyl)guanidine]: the inhibition at 100 µM at SETD7 was > 50%. On PRMT1 [1] (setting [4]), it took 290 ± 40 nM to reach half-maximal inhibition (IC50). The Ki at PRMT1 [1] was 58 ± 7 nM.

Take `N=C(NCCCSC[C@H]1O[C@@H](n2cnc3c(N)ncnc32)[C@H](O)[C@@H]1O)NCc1ccc(Br)cc1` [Compound 6n, 1-(3-((((2S,3S,4R,5R)-5-(6-amino-9H-purin-9-yl)-3,4-dihydroxytetrahydrofuran-2-yl)methyl)thio)propyl)-3-(4-bromobenzyl)guanidine]: the inhibition at 100 µM on SETD7 is > 50%. Besides, the IC50 on PRMT1 [1] (setting [4]) worked out at 260 ± 70 nM. Also, on PRMT1 [1], the Ki is 52 ± 14 nM.

With `N=C(N)NCCCCN(CCC(N)C(=O)O)C[C@H]1O[C@@H](n2cnc3c(N)ncnc32)[C@H](O)[C@@H]1O` (some centres unmarked) [JD-16], the IC50 on PRMT1 [2] was 3000 nM.

As for `Nc1nc2cc(CC[C@H]3C[C@@H](n4ccc5c(N)ncnc54)[C@H](O)[C@@H]3O)ccc2cc1Br` [JNJ-64619178], in the assay with PRMT5/MEP50, the IC50 was […].

For the compound `CCCNC(CCC(N)C(=O)O)C[C@H]1O[C@@H](n2cnc3c(N)ncnc32)[C@H](O)[C@@H]1O` (some centres unmarked) [Pr-SNF], at PRMT4, the IC50 is 9500 nM.
